Consider three compounds from US20260124170A1, “PHARMACEUTICAL COMPOSITION COMPRISING METABOLITE OF ENAVOGLIFLOZIN, AND USE THEREOF” (DAEWOONG PHARMACEUTICAL CO., LTD., priority 2022, published 2026).

Molecules are shown by their SMILES. Read-outs that look alike come from different tables or passages of the source.

Data set [1] has as its target T1, SGLT2 (Homo sapiens, UniProt P31639).
T1 construct: expressed in transfected cells
T1 sequence (P31639 1-672): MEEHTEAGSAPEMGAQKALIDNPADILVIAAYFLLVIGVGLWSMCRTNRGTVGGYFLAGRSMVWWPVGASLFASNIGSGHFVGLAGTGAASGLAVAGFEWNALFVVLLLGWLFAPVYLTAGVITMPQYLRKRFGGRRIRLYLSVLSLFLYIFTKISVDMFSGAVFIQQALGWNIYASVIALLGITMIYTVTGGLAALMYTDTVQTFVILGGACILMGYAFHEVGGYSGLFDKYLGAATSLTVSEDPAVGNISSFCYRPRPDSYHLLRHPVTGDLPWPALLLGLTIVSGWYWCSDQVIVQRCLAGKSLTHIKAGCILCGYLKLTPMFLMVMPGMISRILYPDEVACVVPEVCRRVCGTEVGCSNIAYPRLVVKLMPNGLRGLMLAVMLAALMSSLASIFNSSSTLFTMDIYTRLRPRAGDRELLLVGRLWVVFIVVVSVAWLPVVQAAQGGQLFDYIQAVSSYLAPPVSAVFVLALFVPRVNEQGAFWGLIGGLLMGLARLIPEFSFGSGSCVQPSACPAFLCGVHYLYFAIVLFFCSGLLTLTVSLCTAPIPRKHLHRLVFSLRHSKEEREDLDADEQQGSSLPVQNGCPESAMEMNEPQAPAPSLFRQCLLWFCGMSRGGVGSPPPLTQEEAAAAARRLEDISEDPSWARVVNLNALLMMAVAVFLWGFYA
The data set is described as follows: Inhibition of [14C]AMG uptake in SGLT2-overexpressing CHO cells. Type of data set: cell-based. The note with it: for IC50: CHO-SGLT2 cells, 10 μM [14C]AMG, 2 h, 37° C.; for IC50 ratio (SGLT1/SGLT2): ratio of SGLT1 IC50 to SGLT2 IC50. On the procedure: The evaluation was performed in the same manner as the evaluation of SGLT1 inhibition, except that an SGLT2-overexpressing cell line (CHO-SGLT2 stable cells) was used, and the inhibitory evaluation substances described below were used.

In data set [2] the target is T2, SGLT1 (Homo sapiens, UniProt P13866).
T2 construct: expressed in transfected cells
T2 sequence (P13866 1-664): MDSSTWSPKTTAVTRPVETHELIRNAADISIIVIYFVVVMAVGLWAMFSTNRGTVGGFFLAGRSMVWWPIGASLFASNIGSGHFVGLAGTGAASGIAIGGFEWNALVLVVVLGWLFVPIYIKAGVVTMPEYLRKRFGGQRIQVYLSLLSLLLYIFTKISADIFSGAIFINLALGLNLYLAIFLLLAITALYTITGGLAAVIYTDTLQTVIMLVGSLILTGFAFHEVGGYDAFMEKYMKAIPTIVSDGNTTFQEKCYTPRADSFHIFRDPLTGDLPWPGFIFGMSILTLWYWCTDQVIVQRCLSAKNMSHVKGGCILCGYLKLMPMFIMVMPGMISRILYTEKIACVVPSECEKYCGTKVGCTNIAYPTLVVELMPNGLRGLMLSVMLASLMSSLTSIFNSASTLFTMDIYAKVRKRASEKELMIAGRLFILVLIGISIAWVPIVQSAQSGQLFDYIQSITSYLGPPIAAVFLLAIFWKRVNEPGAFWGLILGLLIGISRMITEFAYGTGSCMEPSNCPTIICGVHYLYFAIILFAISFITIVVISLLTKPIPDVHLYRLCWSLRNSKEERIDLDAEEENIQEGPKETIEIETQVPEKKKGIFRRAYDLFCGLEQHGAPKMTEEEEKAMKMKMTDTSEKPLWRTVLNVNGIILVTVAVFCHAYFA
The data set is described as follows: Change in SGLT1 inhibition according to drug pretreatment time (CHO-SGLT1). Type of data set: cell-based. The following applies: for IC50: CHO-SGLT1; for Change in SGLT1 inhibition as exposure time increased: pretreatment 0, 1, 2 h, one-way ANOVA. From the text: (§1) All data values are expressed as the mean±SD of […].

The target in data set [3] is T2, SGLT1. The data set can be described thus: SGLT1 inhibition with varied substrate AMG concentration (Dixon / L-B plot). The class given is cell-based. The note with it: for Inhibition mechanism, SGLT1: CHO-SGLT1, varied AMG concentration; for Ki: from slope of L-B plot, CHO-SGLT1.
Protocol: (§2) From these, the inhibition mechanism was confirmed, and the inhibition constant was calculated.
Data set [4] concerns the target T1, SGLT2. The data set can be described thus: Change in SGLT2 inhibition according to drug pretreatment time (CHO-SGLT2). The class given is cell-based. The note with it: for IC50: CHO-SGLT2; for Change in SGLT2 inhibition as exposure time increased: pretreatment 0, 1, 2 h, one-way ANOVA.
Excerpt: as §1

For data set [5], the target named is T1, SGLT2. The data set can be described thus: SGLT2 inhibition with varied substrate AMG concentration (Dixon / L-B plot). The note with it: for Inhibition mechanism, SGLT2: CHO-SGLT2, varied AMG concentration; for Ki: from slope of L-B plot, CHO-SGLT2. The class given is cell-based.
Protocol: as §2
Data set [6] has as its system normal rats. The data set is described as follows: Oral glucose tolerance test (OGTT) after intravenous administration. The class given is in vivo, rat. The note with it: 1 mg/kg intravenous; for Glucose tolerance inhibition rate improved compared to the vehicle (blood glucose AUC): AUC for 120 minutes; for Glucose tolerance in OGTT: glucose 2 g/kg. Here is the method:
Enavogliflozin, M1, or M2 was intravenously administered once to normal rats, and antidiabetic efficacy was evaluated.
To perform the oral glucose tolerance test (OGTT) and examine urinary glucose excretion (UGE), enavogliflozin, M1, or M2 was administered intravenously to male 8-week-old normal rats at a dose of 1 mg/kg, and then a glucose solution (2 g/kg) was administered to load blood sugar. The blood sugar level was measured before glucose solution administration and at 5, 10, 15, 20, 30, 40, 60, 90, and 120 minutes after the administration to evaluate oral glucose tolerance. In addition, the UGE was evaluated by measuring the amount of glucose excreted in the urine 6, 24, 48, and 72 hours after the administration of the glucose solution.

The test system of data set [7] is human hepatocytes. The note with it: cited from earlier work.
Setting [8] is: IC50 according to pretreatment time (nM), SGLT1, 1 h, 1 h pretreatment in sodium-free buffer.
[9] abbreviates: IC50 according to pretreatment time (nM), SGLT1, 2 h, 2 h pretreatment in sodium-free buffer.
Where [10] appears, read: no pretreatment, read-out: IC50 according to pretreatment time (nM), SGLT1, 0 h.
Where [11] appears, read: IC50 according to pretreatment time (nM), SGLT2, 1 h, 1 h pretreatment in sodium-free buffer.
The mark [12] stands for this setting: IC50 according to pretreatment time (nM), SGLT2, 2 h, 2 h pretreatment in sodium-free buffer.
The mark [13] stands for this setting: no pretreatment, read-out: IC50 according to pretreatment time (nM), SGLT2, 0 h.

The term IC50 denotes the midpoint of a concentration-inhibition curve. A word on the Ki: it is the dissociation constant of the complex between target and ligand, obtained from inhibition or displacement. Low values mean a stronger hold on the target, high ones a looser hold on the target.

Take `OC[C@H]1O[C@@H](c2cc(Cc3ccc(C4CC4)cc3)c(Cl)c3c2CCO3)[C@H](O)[C@@H](O)[C@@H]1O` [Enavogliflozin, (2S,3R,4R,5S,6R)-2-(7-chloro-6 (4-cyclopropylbenzyl)-2,3-dihydrobenzofuran-4-yl)-6-(hydroxymethyl)tetrahydro-2H-pyran-3,4,5-triol]: the IC50 was 0.34 ± 0.08 nM in data set [1]; 889 ± 238 nM in data set [2] (setting [8]); 829 ± 194 nM in data set [2] (setting [9]); 867 ± 163 nM in data set [2] (setting [10]); 0.285 ± 0.188 nM in data set [4] (setting [11]); 0.519 ± 0.222 nM in data set [4] (setting [12]). In addition, the IC50 in data set [4] (setting [13]) was found to be 0.388 ± 0.119 nM. In data set [1], the “IC50 ratio (SGLT1/SGLT2)” value is reported as 2538. Moreover, the “Change in SGLT1 inhibition as exposure time increased” value in data set [2] is reported as “did not show any significant change or increase in inhibition”. In addition, the “Inhibition mechanism, SGLT1” value in data set [3] was “Competitive inhibition”. The Ki worked out at 495 nM in data set [3] and 0.411 nM in data set [5]. Also, in data set [4], the “Change in SGLT2 inhibition as exposure time increased” value is recorded as “did not increase or significantly change”. Further, in data set [5], the “Inhibition mechanism, SGLT2” value is on record as “Competitive inhibition”. In addition, the “Glucose tolerance inhibition rate improved compared to the vehicle (blood glucose AUC)” value in data set [6] is 27%. Further, in data set [6], the “Glucose tolerance in OGTT” value is reported as “improved glucose tolerance”. For the same compound, the “Number of metabolites produced in human hepatocytes” value in data set [7] (M1, M2, M3, U1, U2) was “five”.
For `OC[C@H]1O[C@@H](c2cc(Cc3ccc(C4CC4)cc3)c(Cl)c3c2CC(O)O3)[C@H](O)[C@@H](O)[C@@H]1O` (stereo partly drawn) [M1, (2S,3R,4R,5S,6R)-2-(7-chloro-6-(4-cyclopropylbenzyl)-2-hydroxy-2,3-dihydrobenzofuran-4-yl)-6-(hydroxymethyl)tetrahydro-2H-pyran-3,4,5-triol], the IC50 in data set [1] came to 4.71 ± 0.69 nM; in data set [2] (setting [8]), 103 ± 22.4 nM; in data set [2] (setting [9]) it was 76.6 ± 1.2 nM; in data set [2] (setting [10]), 29.2 ± 13.5 nM; in data set [4] (setting [11]) it was 5.24 ± 1.1 nM; in data set [4] (setting [12]), 9.95 ± 3.14 nM. Moreover, the IC50 in data set [4] (setting [13]) was 8.44 ± 0.77 nM. Also, the “IC50 ratio (SGLT1/SGLT2)” value in data set [1] was determined as 6.0. For the same compound, the “Change in SGLT1 inhibition as exposure time increased” value in data set [2] is “significantly increased”. The “Inhibition mechanism, SGLT1” value in data set [3] was “Competitive inhibition”. The Ki in data set [3] was 84.8 nM; in data set [5] it was 7.49 nM. For the same compound, in data set [4], the “Change in SGLT2 inhibition as exposure time increased” value is listed as “did not increase or significantly change”. For the same compound, in data set [5], the “Inhibition mechanism, SGLT2” value was “Competitive inhibition”. For the same compound, the “Glucose tolerance inhibition rate improved compared to the vehicle (blood glucose AUC)” value in data set [6] was determined as 49%. In addition, the “Glucose tolerance in OGTT” value in data set [6] (1 mg/kg) was “improved glucose tolerance”; in data set [6] (listed as Metabolite M1, 1 mg/kg), “superior glucose tolerance to enavogliflozin”. In data set [7], the “Enzymes catalyzing formation of the metabolite” value is “CYP3A4 and CYP2C19”.
Turning to `OC[C@H]1O[C@@H](c2cc(Cc3ccc(C4(O)CC4)cc3)c(Cl)c3c2CCO3)[C@H](O)[C@@H](O)[C@@H]1O` [M2, (2S,3R,4R,5S,6R)-2-(7-chloro-6-(4-(1-hydroxycyclopropyl)benzyl)-2,3-dihydrobenzofuran-4-yl)-6-(hydroxymethyl)tetrahydro-2H-pyran-3,4,5-triol], the IC50 in data set [1] turned out to be 3.02 ± 0.36 nM; in data set [2] (setting [8]), 1020 ± 225 nM; in data set [2] (setting [9]), 1180 ± 177 nM; in data set [2] (setting [10]), 1080 ± 71 nM; in data set [4] (setting [11]), 3.63 ± 0.83 nM; in data set [4] (setting [12]), 3.24 ± 0.81 nM. In data set [4] (setting [13]), the IC50 was determined as 2.75 ± 0.36 nM. For the same compound, in data set [1], the “IC50 ratio (SGLT1/SGLT2)” value was 402. In addition, in data set [2], the “Change in SGLT1 inhibition as exposure time increased” value is “did not show any significant change or increase in inhibition”. Moreover, in data set [3], the “Inhibition mechanism, SGLT1” value is given as “Competitive inhibition”. Also, the Ki in data set [3] came out at 1870 nM; in data set [5] it was 6.18 nM. Also, in data set [4], the “Change in SGLT2 inhibition as exposure time increased” value was “did not increase or significantly change”. Moreover, the “Inhibition mechanism, SGLT2” value in data set [5] is recorded as “Competitive inhibition”. Moreover, the “Glucose tolerance inhibition rate improved compared to the vehicle (blood glucose AUC)” value in data set [6] turned out to be 23%. The “Glucose tolerance in OGTT” value in data set [6] (1 mg/kg) is recorded as “improved glucose tolerance”. In data set [7], the “Enzymes catalyzing formation of the metabolite” value was “CYP3A4 and CYP2C19”.
